Consider two molecules from patent publication US20240351994A1, “MAXI-K POTASSIUM CHANNEL OPENERS FOR THE TREATMENT OF FRAGILE X ASSOCIATED DISORDERS” (Kaerus Bioscience Limited, priority 2020, published 2024).

Data set [1] deals with T1, BK channels (HEK-293 cell line expressing functional alpha subunits of BK channels) (Homo sapiens, UniProt Q12791).
T1 construct: expressed in transfected cells; host or cells: HEK-293 (stably transfected; geneticin and blasticidin selection)
Put plainly: Whole-cell patch clamp assay of BK channel stimulatory activity. The class given is cell-based. As to conditions: 3 μM, percentage of control, stably transfected HEK-293 cells. As for the experimental part: HEK-293 cell line expressing functional alpha subunits of BK channels were passaged at a confluence of 50 to 80%. Cells were seeded into 35 mm sterile culture dishes containing 2 mL culture complete medium. Cells were cultivated at a density that enables single cells (without visible connections to neighbouring cells) to be measured.
Cells were incubated at 37° C. in a humidified atmosphere with 5% CO2 (relative humidity about 95%). […]
The 35 mm culture dishes upon which cells were seeded at a density allowing single cells to be recorded were placed on the dish holder of the microscope and continuously perfused (at approximately 1 mL/min) with the bath solution described. […]
Values (in pA/nA) of the current amplitudes were generated for each voltage step. The recorded current amplitudes at the steady state level of current modulation (+50 mV) were compared to those from control conditions measured in the pre-treatment phase of the same cell with SigmaPlot. The amount of current modulation was calculated as percentage of control. Data from at least 2 individual experiments were collected and the corresponding mean values and standard errors calculated.
On the technique in general: Patch clamp records ionic current or voltage across a cell membrane.

The conditions of data set [2]: single intraperitoneal (IP) injection of 2 mg/kg; cited from earlier work.
The subject of data set [3] is plasma proteins. As to conditions: cited from earlier work.

T1 sequence (Q12791 whole entry): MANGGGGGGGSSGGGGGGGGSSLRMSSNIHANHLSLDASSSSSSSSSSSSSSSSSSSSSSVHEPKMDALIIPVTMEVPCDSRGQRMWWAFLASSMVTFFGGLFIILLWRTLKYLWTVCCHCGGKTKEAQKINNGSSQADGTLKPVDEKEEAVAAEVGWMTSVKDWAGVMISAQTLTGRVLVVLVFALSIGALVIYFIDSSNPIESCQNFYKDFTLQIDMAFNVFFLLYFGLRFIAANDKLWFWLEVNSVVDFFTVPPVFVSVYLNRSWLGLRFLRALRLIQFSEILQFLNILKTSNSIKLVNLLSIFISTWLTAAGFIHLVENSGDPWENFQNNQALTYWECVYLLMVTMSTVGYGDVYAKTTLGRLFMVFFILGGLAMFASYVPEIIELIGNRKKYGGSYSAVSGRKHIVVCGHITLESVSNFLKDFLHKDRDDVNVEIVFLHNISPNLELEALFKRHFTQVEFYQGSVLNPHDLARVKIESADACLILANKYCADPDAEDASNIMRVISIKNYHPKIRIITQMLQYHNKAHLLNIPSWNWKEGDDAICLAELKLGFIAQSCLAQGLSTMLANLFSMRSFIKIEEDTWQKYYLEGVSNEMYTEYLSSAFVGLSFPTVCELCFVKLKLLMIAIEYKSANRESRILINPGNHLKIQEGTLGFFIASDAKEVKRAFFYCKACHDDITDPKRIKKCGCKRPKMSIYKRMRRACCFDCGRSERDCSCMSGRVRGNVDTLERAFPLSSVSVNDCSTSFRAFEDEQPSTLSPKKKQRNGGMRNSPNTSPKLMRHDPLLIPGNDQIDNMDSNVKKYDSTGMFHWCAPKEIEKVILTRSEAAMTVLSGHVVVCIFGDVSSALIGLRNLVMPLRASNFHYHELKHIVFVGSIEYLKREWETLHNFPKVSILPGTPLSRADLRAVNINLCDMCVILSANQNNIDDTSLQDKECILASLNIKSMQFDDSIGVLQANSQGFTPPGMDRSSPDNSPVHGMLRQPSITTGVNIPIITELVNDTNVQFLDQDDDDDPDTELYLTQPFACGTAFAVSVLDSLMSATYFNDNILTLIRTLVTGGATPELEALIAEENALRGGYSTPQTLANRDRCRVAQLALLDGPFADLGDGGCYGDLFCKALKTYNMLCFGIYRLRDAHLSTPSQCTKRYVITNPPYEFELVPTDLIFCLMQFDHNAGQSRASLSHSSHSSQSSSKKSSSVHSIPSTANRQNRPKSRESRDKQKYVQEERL

On to `COc1ccc(Cl)cc1[C@]1(F)C(=O)Nc2cc(C(F)(F)F)ccc21` [BMS-204352, (3S)-(+)-(5-chloro-2-methoxyphenyl)-1,3-dihydro-3-fluoro-6-(trifluoromethyl)-2H-indol-2-one], for which the “Mean stimulation of BK channel activity at +50 mV” value in data set [1] worked out at 216.59%. Besides, the Cmax entry in data set [2] is listed as “about 130 ng/mL”. Besides, in data set [3], the “Covalent binding of metabolic degradation product to plasma proteins” value was “gives rise to a metabolic degradation product that covalently binds to plasma proteins”.
For the molecule `COc1ccc(Cl)cc1C1(C)C(=O)Nc2cc(C(F)(F)F)ccc21` (stereo not shown) [Example 1, 3-(5-chloro-2-methoxyphenyl)-3-methyl-6-(trifluoromethyl)indolin-2-one], the “Mean stimulation of BK channel activity at +50 mV” value in data set [1] is 204.09%.
